Results on two molecules are retold here after publication PMC11729428, “New Potent Inhibitor of Transforming Growth Factor-Beta (TGFβ) Signaling that is Efficacious against Microsatellite Stable Colorectal Cancer Metastasis in Combination with Immune Checkpoint Therapy in Mice” (ACS Pharmacology & Translational Science, 2024).

SMILES strings stand for the structures.

In one data set the test system is ALK5. The settings on record: structure-activity relationship study of Li et al. ref 16; cited from earlier work.
The nature of data set [1]: in vitro. The note with it: human. The procedure:
(§1) 5. Methods for In vitro characterizations of HYL001 […]
(§2) Rapid equilibrium dialysis was performed in triplicates with a rapid equilibrium dialysis (RED) by Sai Life Sciences Lt. (Telangana, India). The RED device contains a dialysis membrane with a molecular weight cut -off […]
(§3) of 8,000 Da, separating two chambers for plasma and buffer, respectively. […]
(§4) were added to the plasma chamber, versus phosphate buffer saline (pH 7.4) to the buffer chamber. Dialysis was performed for 4 h with 100 RPM shaking at 37 °C. […]
(§5) compounds in plasma were either frozen immediately (T0 sample), or incubated at 37 °C for 4 h without dialysis (non-dialysed), respectively.
(§6) Following dialysis, an aliquot was removed from either chamber and diluted with equal volume of opposite matrix to nullify the matrix effect. Similarly, buffer was added to recovery and stability samples. Next, acetonitrile (containing internal standard, glipizide) was added to the mixtures for protein precipitation and vortexed for 5 minutes. The samples were centrifuged at 4000 RPM at 4 °C for 10 min and the supernatant was submitted for liquid chromatography mass spectrometry (LC-MS/MS) analysis. Samples were monitored for parent compound using multiple reaction monitoring (MRM) mode.
(§7) The peak area ratios (PAR, analyte versus internal standard) in plasma vs bufffer were used to determine the fraction of compound bound to plasma proteins. The following equation was used to determine the extent of plasma protein binding: percent free drug = 100% x (PARbuffer / PARplasma); percent bound drug = 100 - % free drug. Recovery was calculated as 100% x (PARplasma + PARbuffer)dialysed / (PARplasma)non-dialysed; stability as 100% x (PAR)non-dialysed / (PARplasma)frozen at T0. […]

Data set [2] is described as follows: in vitro. The settings on record: rat. Here is the method:
as §1, §2, §3, §4, §5, §6, §7

Data set [3] is described as follows: in vitro. The settings on record: mouse. Here is the method:
as §1, §2, §3, §4, §5, §6, §7

With `Cc1cccc(-c2nn3c(c2-c2ccnc4ccc(Br)cc24)CCC3)n1` [6-Br, 6-Bromo-4-(2-(6-methylpyridin-2-yl)-5,6-dihydro-4H-pyrrolo[1,2-b]pyrazol-3-yl) Quinoline], the IC50 with ALK5 was 0.089 µM.

As to `CC(=O)CC(c1ccccc1)c1c(O)c2ccccc2oc1=O` (stereo not shown) [Warfarin, reference compound], the recovery at 4 h, 5 µM in “in vitro [1]” (pH 7.4) came to 100%; in the data set “in vitro [2]” (pH 7.4) it was 98.6%; in “in vitro [3]” (pH 7.4) it was 99.9%. For the same molecule, the “% Compound remaining at 4 hrs” value in “in vitro [1]” (plasma, 4 h, 5 µM) is recorded as 84.2%; in “in vitro [2]” (plasma, 4 h, 5 µM), 104.8%; in the data set “in vitro [3]” (plasma, 4 h, 5 µM) it was 106.2%.
